Source: patent publication US10155027B2, “Alpha-galactosidase A and 1-deoxygalactonojirimycin co-formulation for the treatment of fabry disease” (Amicus Therapeutics, Inc., priority 2012, dated 2018)
Counter-ions that a name gives are not always drawn. Like-named read-outs stand apart in the source and are kept apart here.

Legend:
[1] = General toxicology NOAEL, rat; format: in vivo
α-Gal A = target: T1, α-Gal A (Homo sapiens, UniProt P06280); test: α-Gal A stability in whole blood ex vivo at 37° C.; format: in vitro ADME; settings: 5 nM and 50 nM α-Gal A formulated with 10 μM DGJ
T1 construct: purchased JCR Pharmaceuticals Co. Ltd, (Japan) JR-051; host or cells: CHO cells
T1 sequence (P06280 32-429): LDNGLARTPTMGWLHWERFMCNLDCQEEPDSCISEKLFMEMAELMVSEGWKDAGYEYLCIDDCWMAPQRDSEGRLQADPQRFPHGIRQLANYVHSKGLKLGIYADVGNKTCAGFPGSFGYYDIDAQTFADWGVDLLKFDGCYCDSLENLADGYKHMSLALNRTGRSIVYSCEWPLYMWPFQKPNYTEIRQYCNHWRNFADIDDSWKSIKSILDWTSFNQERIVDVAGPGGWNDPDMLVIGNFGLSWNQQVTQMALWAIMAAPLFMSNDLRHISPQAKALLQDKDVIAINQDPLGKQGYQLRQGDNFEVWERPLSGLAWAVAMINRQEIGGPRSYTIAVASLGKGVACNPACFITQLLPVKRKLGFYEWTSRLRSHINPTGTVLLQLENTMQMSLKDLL
Description: The effect of co-formulating α-Gal A with DGJ on α-Gal A stability in blood ex vivo was examined. Time-dependent loss of α-Gal A activity in whole blood at 37° C. was determined. 5 nM and 50 nM α-Gal A was formulated with or without 10 μM DGJ.

[2] = Phase 1 single ascending dose 2-hour IV infusion PK in healthy subjects (Cohorts 1-3); format: in vivo, human; settings: for Vd / AUC(0-t) / AUC(0-inf) / Tmax / half-life / Cmax: human, plasma; for Vd: iv; for AUC(0-t): read-out: AUC0-t (geometric mean)
Description: Healthy volunteers received migalastat HCl (DGJ HCl) via the intravenous (IV) route of administration to evaluate safety, tolerability, and pharmacokinetics. Another study was performed to determine the absolute bioavailability of migalastat after an oral capsule dose as compared to an IV administered dose of migalastat HCl in healthy volunteers. The absolute bioavailability arm was added to determine the exposure ratio of a 150 mg oral dose relative to a 150 mg dose administered as an IV infusion.
Type of Study: This Phase 1 study was a single-center study consisting of 2 designs. Cohorts 1, 2, and 3 were performed according to a randomized, double-blind, placebo-controlled, single ascending dose (SAD) IV study design to evaluate the safety, tolerability, and PK of IV administered migalastat HCl or IV administered placebo in healthy subjects. Cohort 4 was an open-label, randomized two-way crossover arm designed to assess the absolute bioavailability of orally administered migalastat HCl relative to IV administered migalastat HCl in healthy subjects.
Cohorts 1, 2, 3: Subjects in Cohorts 1, 2, and 3 received IV administered single ascending doses of migalastat HCl. Seven subjects were enrolled into each cohort (5 subjects randomized to migalastat HCl and 2 subjects randomized to placebo). Dosing of Cohorts 1, 2, and 3 was staggered to allow for safety and tolerability review before proceeding with the next group. Therefore, Cohorts 1, 2, and 3 were each divided into 2 sub-groups: Group A (2 subjects randomized to migalastat HCl and 1 subject randomized to placebo) and Group B (3 subjects randomized to migalastat HCl and 1 subject randomized to placebo). Subjects in Group B were dosed the day following completion of Group A dosing. Except for Cohort 3B, which was dosed 31 days after Cohort 3A because an interim PK review was performed on emerged data from Cohort 3A. Additionally, initiation of infusion was staggered by 60 minutes for Group A subjects, and by 30 minutes for Group B subjects (see FIG. 12).
Subjects enrolled in Cohorts 1, 2, and 3 were randomized to receive one of the following doses of migalastat HCl (n=5) or placebo (n=2): […]

[3] = Phase 2a study of oral migalastat HCl co-administered with agalsidase in Fabry patients; format: in vivo, human; settings: 23 Fabry patients; single oral 150 mg with 0.2, 0.5, and 1.0 mg/kg agalsidase
[4] = predicted human exposure at 0.3 mg/kg IV
[5] = predicted human exposure at 10.0 mg/kg IV
[6] = 1.0 mg/kg vs 0.3 mg/kg, theoretical 3.33
[7] = 10 mg/kg vs 0.3 mg/kg, theoretical 33.3

**Q.** With `OC[C@H]1NC[C@H](O)[C@@H](O)[C@H]1O` [migalastat HCl, (2R,3S,4R,5S)-2-(hydroxymethyl) piperdine-3,4,5-triol] as the molecule, how does the “Fold Cover to NOAEL AUC, Rat” value [1, 4] read?
**A.** 134

**Q.** And the “Fold Cover to NOAEL Cmax, Rat” value [1, 4]?
**A.** 65

**Q.** What about the “Fold Cover to NOAEL AUC, Rat” value [1, 5] of the same molecule?
**A.** 4.05

**Q.** What about the “Fold Cover to NOAEL Cmax, Rat” value [1, 5] of the same molecule?
**A.** 1.93

**Q.** What about the AUC ([1]; rat, in vivo, 1500 mg/kg/day) of the same molecule?
**A.** 24900 ng·h/mL

**Q.** And the Cmax ([1]; rat, in vivo, 1500 mg/kg/day)?
**A.** 23400 ng/mL

**Q.** What about the NOAEL ([1]; rat, in vivo, general toxicology) of the same molecule?
**A.** 1500 mg/kg/day

**Q.** And the tolerability (oral 150 mg capsule, healthy volunteers and Fabry patients)?
**A.** well tolerated

**Q.** What about the linearity of exposure (oral administrations) of the same molecule?
**A.** linear exposures to 1250 mg

**Q.** What about the tolerability (single dose administrations up to 2000 mg, healthy volunteers, Phase 1) of the same molecule?
**A.** well tolerated

**Q.** What about the “effect on α-Gal A stability in whole blood” value (α-Gal A) of the same molecule?
**A.** stabilized the enzyme and prevented enzyme inactivation

**Q.** And the “CLT (arithmetic mean)” value ([2]; 0.3 mg/kg IV)?
**A.** 6.59 L/h

**Q.** What about the “CLT (arithmetic mean)” value ([2]; 1.0 mg/kg IV) of the same molecule?
**A.** 7.68 L/h

**Q.** What about the “Ratio Test/Reference, AUC0-t” value [2, 6] of the same molecule?
**A.** 3.01

**Q.** What about the “Ratio Test/Reference, AUC0-∞” value [2, 6] of the same molecule?
**A.** 2.99

**Q.** And the “Ratio Test/Reference, Cmax” value [2, 6]?
**A.** 2.89

**Q.** And the “CLT (arithmetic mean)” value ([2]; 10 mg/kg IV)?
**A.** 7.40 L/h

**Q.** What about the “Ratio Test/Reference, AUC0-t” value [2, 7] of the same molecule?
**A.** 35.5

**Q.** What about the “Ratio Test/Reference, AUC0-∞” value [2, 7] of the same molecule?
**A.** 35.2

**Q.** What about the “Ratio Test/Reference, Cmax” value [2, 7] of the same molecule?
**A.** 33.9

**Q.** What about the “dose proportionality of plasma exposure parameters” value ([2]; 0.3 to 10 mg/kg single ascending IV dose range) of the same molecule?
**A.** appeared to be dose proportional

**Q.** What about the Vd ([2]; 0.3 mg/kg, 0.3 mg/kg IV, read-out: Vss (arithmetic mean)) of the same molecule?
**A.** 17.9 L

**Q.** What about the Vd ([2]; 0.3 mg/kg, 0.3 mg/kg IV, read-out: Vz (arithmetic mean)) of the same molecule?
**A.** 19.9 L

**Q.** And the Vd ([2]; 1 mg/kg, 1.0 mg/kg IV, read-out: Vss (arithmetic mean))?
**A.** 24.2 L

**Q.** What about the Vd ([2]; 1 mg/kg, 1.0 mg/kg IV, read-out: Vz (arithmetic mean)) of the same molecule?
**A.** 35 L

**Q.** And the Vd ([2]; 10 mg/kg, 10 mg/kg IV, read-out: Vss (arithmetic mean))?
**A.** 27.2 L

**Q.** And the Vd ([2]; 10 mg/kg, 10 mg/kg IV, read-out: Vz (arithmetic mean))?
**A.** 107 L

**Q.** What about the Vd ([2]; 0.3 to 10 mg/kg IV, read-out: Vss, range over doses) of the same molecule?
**A.** 17.9 to 27.2 L

**Q.** What about the Vd ([2]; 0.3 to 10 mg/kg IV, read-out: arithmetic mean Vz, range over doses) of the same molecule?
**A.** 19.9 to 107 L

**Q.** And the AUC(0-t) ([2]; 0.3 mg/kg IV)?
**A.** 2280 ng·h/mL

**Q.** And the AUC(0-inf) ([2]; 0.3 mg/kg IV, read-out: AUC0-∞ (geometric mean))?
**A.** 2320 ng·h/mL

**Q.** What about the Tmax ([2]; 0.3 mg/kg IV, read-out: tmax (median)) of the same molecule?
**A.** 1.93 h

**Q.** And the half-life ([2]; 0.3 mg/kg IV, read-out: t½ (arithmetic mean) (converted))?
**A.** 2.09 h

**Q.** And the AUC(0-t) ([2]; 1.0 mg/kg IV)?
**A.** 6860 ng·h/mL

**Q.** And the AUC(0-inf) ([2]; 1.0 mg/kg IV, read-out: AUC0-∞ (geometric mean))?
**A.** 6920 ng·h/mL

**Q.** And the Tmax ([2]; 1.0 mg/kg IV, read-out: tmax (median))?
**A.** 1.93 h

**Q.** And the half-life ([2]; 1.0 mg/kg IV, read-out: t½ (arithmetic mean) (converted))?
**A.** 3.21 h

**Q.** What about the AUC(0-t) ([2]; 10 mg/kg IV) of the same molecule?
**A.** 81100 ng·h/mL

**Q.** What about the AUC(0-inf) ([2]; 10 mg/kg IV, read-out: AUC0-∞ (geometric mean)) of the same molecule?
**A.** 81400 ng·h/mL

**Q.** And the Tmax ([2]; 10 mg/kg IV, read-out: tmax (median))?
**A.** 1.93 h

**Q.** And the half-life ([2]; 10 mg/kg IV, read-out: t½ (arithmetic mean) (converted))?
**A.** 10 h

**Q.** What about the half-life ([2]; 0.3 to 10 mg/kg IV, read-out: arithmetic mean apparent terminal t½, range over doses) of the same molecule?
**A.** 2.09 to 10 h

**Q.** What about the AUC(0-inf) ([2]; 0.3 to 10 mg/kg IV, read-out: geometric mean AUC0-∞, range over doses) of the same molecule?
**A.** 2320 to 81400 ng·h/mL

**Q.** And the Cmax ([2]; 0.3 to 10 mg/kg IV, read-out: geometric mean Cmax, range over doses)?
**A.** 609 to 20700 ng/mL

**Q.** And the Tmax ([2]; dose levels of 0.3, 1.0, and 10 mg/kg IV, post start of infusion, read-out: median tmax)?
**A.** 1.93 h

**Q.** And the Cmax ([2]; 0.3 mg/kg IV, 2-hour infusion, read-out: Cmax (geometric mean))?
**A.** 609 ng/mL

**Q.** What about the Cmax ([2]; 1.0 mg/kg IV, 2-hour infusion, read-out: Cmax (geometric mean)) of the same molecule?
**A.** 1760 ng/mL

**Q.** What about the Cmax ([2]; 10 mg/kg IV, 2-hour infusion, read-out: Cmax (geometric mean)) of the same molecule?
**A.** 20700 ng/mL

**Q.** And the “tissue uptake of active α-Gal A into skin” value [3]?
**A.** improved tissue uptake of active α-Gal A into skin
